31 compounds from patent US8735414B2 (priority 2009, dated 2014) can be followed below.

The structures appear in SMILES notation.

System in the first series: not given
Test: not given
Details: not given
Consider `C[C@H](NS(=O)(=O)c1ccc(-c2c(C#N)c3ccc(OC(F)F)cc3n2C2CCC2)nc1)C(F)(F)F` [compound 300, 6-[3-cyano-1-cyclobutyl-6-(difluoromethoxy)-1H-indol-2-yl]-N-[(2S)-1,1,1-trifluoropropan-2-yl]pyridine-3-sulfonamide], for which the melting point – broadly, the temperature, or range, at which the solid turns liquid – was in the range of 159 to 162 °C.

Compound `CC(C)NS(=O)(=O)c1ccc(-c2c(C#N)c3ccc(OC(F)F)cc3n2C2CCCC2)nc1` [compound 52, 6-[3-cyano-1-cyclopentyl-6-(difluoromethoxy)-1H-indol-2-yl]-N-(propan-2-yl)pyridine-3-sulfonamide] came in with a melting point of 157 to 158 °C.

Regarding `CC(C)NS(=O)(=O)c1ccc(-c2c(C#N)c3ccc(OC(F)(F)F)cc3n2C2CCC2)nc1` [compound 10, 6-[3-cyano-1-cyclobutyl-6-(trifluoromethoxy)-1H-indol-2-yl]-N-(propan-2-yl)pyridine-3-sulfonamide], the melting point fell in the range of 191 to 193 °C.

`CC(C)NS(=O)(=O)c1ccc(-c2c(C#N)c3ccc(OCC(F)F)cc3n2C2CCC2)nc1` [compound 59, 6-[3-cyano-1-cyclobutyl-6-(2,2-difluoroethoxy)-1H-indol-2-yl]-N-(propan-2-yl)pyridine-3-sulfonamide] registered a melting point of 171 to 173 °C.

Turning to `N#Cc1c(-c2ccc(S(=O)(=O)NC(CF)CF)cn2)n(C2CCC2)c2cc(OC(F)F)ccc12` [compound 31, 6-[3-cyano-1-cyclobutyl-6-(difluoromethoxy)-1H-indol-2-yl]-N-(1,3-difluoropropan-2-yl)pyridine-3-sulfonamide], the melting point lay in the range of 159 to 161 °C.

As for `CC(C)NS(=O)(=O)c1ccc(-c2c(C#N)c3ccc(OC(F)F)cc3n2CC2CC2)cn1` [compound 40, 5-[3-cyano-1-(cyclopropylmethyl)-6-(difluoromethoxy)-1H-indol-2-yl]-N-(propan-2-yl)pyridine-2-sulfonamide], the melting point was 186 to 188 °C.

`CC(C)NS(=O)(=O)c1ccc(-c2c(C#N)c3ccc(C4CC4)cc3n2C2CCC2)nc1` [compound 7, 6-(3-cyano-1-cyclobutyl-6-cyclopropyl-1H-indol-2-yl)-N-(propan-2-yl)pyridine-3-sulfonamide] showed a melting point of 174 to 176 °C.

For `CC(C)NS(=O)(=O)c1ccc(-c2c(C#N)c3ccc(OC(F)F)cc3n2C(C)C)nc1` [compound 1, 6-[3-cyano-6-(difluoromethoxy)-1-(propan-2-yl)-1H-indol-2-yl]-N-(propan-2-yl)pyridine-3-sulfonamide], the melting point fell in the range of 157 to 159 °C.

In turn, `C[C@H](NS(=O)(=O)c1ccc(-c2c(C#N)c3ccc(OC(F)F)cc3n2C2CCC2)nc1)C1CC1` [compound 151, 6-[3-cyano-1-cyclobutyl-6-(difluoromethoxy)-1H-indol-2-yl]-N-[(1S)-1-cyclopropylethyl]pyridine-3-sulfonamide] displayed a melting point of 163 to 168 °C.

`CC(C)(NS(=O)(=O)c1ccc(-c2c(C#N)c3ccc(OC(F)F)cc3n2C2CCC2)nc1)C(F)(F)F` [compound 479, 6-[3-cyano-1-cyclobutyl-6-(difluoromethoxy)-1H-indol-2-yl]-N-(1,1,1-trifluoro-2-methylpropan-2-yl)pyridine-3-sulfonamide] showed a melting point of 165 to 171 °C.

Regarding `C[C@H](NS(=O)(=O)c1ccc(-c2c(C(N)=O)c3cc(F)c(C4CC4)cc3n2C2CCCC2)nc1)C(F)(F)F` [compound 842, 1-cyclopentyl-6-cyclopropyl-5-fluoro-2-(5-{[(2S)-1,1,1-trifluoropropan-2-yl]sulfamoyl}pyridin-2-yl)-1H-indole-3-carboxamide], the melting point is 255 to 257 °C.

Turning to `C[C@@H](NS(=O)(=O)c1ccc(-c2c(C#N)c3ccc(OC(F)F)cc3n2C2CCC2)nc1)C(F)(F)F` [compound 196, 6-[3-cyano-1-cyclobutyl-6-(difluoromethoxy)-1H-indol-2-yl]-N-[(2R)-1,1,1-trifluoropropan-2-yl]pyridine-3-sulfonamide], the melting point was in the range of 159 to 164 °C.

As for `CC(C)NS(=O)(=O)c1ccc(-c2c(C#N)c3cc(F)ccc3n2C2CCC2)nc1` [compound 5, 6-(3-cyano-1-cyclobutyl-5-fluoro-1H-indol-2-yl)-N-(propan-2-yl)pyridine-3-sulfonamide], the melting point was in the range of 203 to 205 °C.

As for `CC(NS(=O)(=O)c1ccc(-c2c(C#N)c3ccc(OC(F)F)cc3n2C2CCC2)nc1)C(F)(F)F` (stereo not shown) [compound 78, 6-[3-cyano-1-cyclobutyl-6-(difluoromethoxy)-1H-indol-2-yl]-N-(1,1,1-trifluoropropan-2-yl)pyridine-3-sulfonamide], the melting point lay within 159 to 165 °C.

`CC(C)(CF)NS(=O)(=O)c1ccc(-c2c(C#N)c3ccc(OC(F)F)cc3n2C2CCC2)nc1` [compound 77, 6-[3-cyano-1-cyclobutyl-6-(difluoromethoxy)-1H-indol-2-yl]-N-(1-fluoro-2-methylpropan-2-yl)pyridine-3-sulfonamide] came in with a melting point of 171 to 178 °C.

Take `CC(C)NS(=O)(=O)c1ccc(-c2c(C#N)c3ccc(C(F)F)cc3n2C2CCC2)nc1` [compound 333, 6-[3-cyano-1-cyclobutyl-6-(difluoromethyl)-1H-indol-2-yl]-N-(propan-2-yl)pyridine-3-sulfonamide]: the melting point lay in the range of 212 to 220 °C.

Regarding `CC(C#N)NS(=O)(=O)c1ccc(-c2c(C#N)c3ccc(OC(F)F)cc3n2C2CCC2)nc1` (stereo not shown) [compound 301, 6-[3-cyano-1-cyclobutyl-6-(difluoromethoxy)-1H-indol-2-yl]-N-(1-cyanoethyl)pyridine-3-sulfonamide], the melting point was 188 to 190 °C.

Regarding `N#Cc1c(-c2ccc(S(=O)(=O)NC3(C(F)(F)F)CCC3)cn2)n(C2CCC2)c2cc(OC(F)F)ccc12` [compound 106, 6-[3-cyano-1-cyclobutyl-6-(difluoromethoxy)-1H-indol-2-yl]-N-[1-(trifluoromethyl)cyclobutyl]pyridine-3-sulfonamide], the melting point was 162 to 168 °C.

In turn, `CCCn1c(-c2ccc(S(=O)(=O)NC(C)C)cn2)c(C#N)c2ccc(OC(F)F)cc21` [compound 3, 6-[3-cyano-6-(difluoromethoxy)-1-propyl-1H-indol-2-yl]-N-(propan-2-yl)pyridine-3-sulfonamide] had a melting point of 166 to 170 °C.

Regarding `N#Cc1c(-c2ccc(S(N)(=O)=O)cn2)n(C2CCC2)c2cc(OC(F)F)ccc12` [compound 552, 6-[3-cyano-1-cyclobutyl-6-(difluoromethoxy)-1H-indol-2-yl]pyridine-3-sulfonamide], the melting point was 204 to 205 °C.

In the case of `CC(C)NS(=O)(=O)c1ccc(-c2c(C#N)c3cc(OC(F)(F)F)ccc3n2C2CCC2)nc1` [compound 23, 6-[3-cyano-1-cyclobutyl-5-(trifluoromethoxy)-1H-indol-2-yl]-N-(propan-2-yl)pyridine-3-sulfonamide], the melting point was in the range of 174 to 176 °C.

With `CC(C)NS(=O)(=O)c1ccc(-c2c(C#N)c3ccc(OC(F)F)cc3n2C2CCC2)nc1` [compound 51, 6-[3-cyano-1-cyclobutyl-6-(difluoromethoxy)-1H-indol-2-yl]-N-(propan-2-yl)pyridine-3-sulfonamide], the melting point was 158 to 159 °C.

Consider `CC(C)NS(=O)(=O)c1ccc(-c2c(C#N)c3ccc(C4CCC4)cc3n2C2CCC2)nc1` [compound 266, 6-(3-cyano-1,6-dicyclobutyl-1H-indol-2-yl)-N-(propan-2-yl)pyridine-3-sulfonamide], for which the melting point is 178 to 180 °C.

`N#Cc1c(-c2ccc(S(=O)(=O)NC3(C(F)(F)F)CC3)cn2)n(C2CCC2)c2cc(OC(F)F)ccc12` [compound 93, 6-[3-cyano-1-cyclobutyl-6-(difluoromethoxy)-1H-indol-2-yl]-N-[1-(trifluoromethyl)cyclopropyl]pyridine-3-sulfonamide] had a melting point of 182 to 187 °C.

In the case of `N#Cc1c(-c2ccc(S(=O)(=O)NC3(C(F)(F)F)CC3)cn2)n(C2CCC2)c2cc(C3CC3)ccc12` [compound 153, 6-(3-cyano-1-cyclobutyl-6-cyclopropyl-1H-indol-2-yl)-N-[1-(trifluoromethyl)cyclopropyl]pyridine-3-sulfonamide], the melting point lay in the range of 166 to 171 °C.

Regarding `C[C@H](NS(=O)(=O)c1ccc(-c2c(C#N)c3ccc(C4CC4)cc3n2C2CCC2)nc1)C(F)(F)F` [compound 369, 6-(3-cyano-1-cyclobutyl-6-cyclopropyl-1H-indol-2-yl)-N-[(2S)-1,1,1-trifluoropropan-2-yl]pyridine-3-sulfonamide], the melting point fell in the range of 191 to 197 °C.

Take `N#Cc1c(-c2ccc(S(=O)(=O)NC(CF)CF)cn2)n(C2CCC2)c2cc(C3CC3)ccc12` [compound 35, 6-(3-cyano-1-cyclobutyl-6-cyclopropyl-1H-indol-2-yl)-N-(1,3-difluoropropan-2-yl)pyridine-3-sulfonamide]: the melting point was 175 to 178 °C.

On to `CC(C)NS(=O)(=O)c1ccc(-c2c(C#N)c3ccc(OC(F)F)cc3n2C2CCCCC2)nc1` [compound 99, 6-[3-cyano-1-cyclohexyl-6-(difluoromethoxy)-1H-indol-2-yl]-N-(propan-2-yl)pyridine-3-sulfonamide], for which the melting point was in the range of 187 to 190 °C.

Take `CC(C)NS(=O)(=O)c1ccc(-c2c(C#N)c3ccc(SC(C)C)cc3n2C2CCC2)nc1` [compound 16, 6-[3-cyano-1-cyclobutyl-6-(propan-2-ylsulfanyl)-1H-indol-2-yl]-N-(propan-2-yl)pyridine-3-sulfonamide]: the melting point fell in the range of 129 to 131 °C.

For the next series, the system named is bicistronic HCV replicon (replicon RNA, GenBank Accession No. AJ242654). Kind of series: HCV Replicon Assay. Format: cell-based. As to conditions: Hepatitis C virus, 72 h, read-out: Replicon IC50.
In the case of `CC(C)NS(=O)(=O)c1cnc(-c2c(C#N)c3ccc(Cl)cc3n2C2CCCC2)nc1` [compound 189, 2-(6-chloro-3-cyano-1-cyclopentyl-1H-indol-2-yl)-N-(propan-2-yl)pyrimidine-5-sulfonamide], the IC50 – broadly, the concentration needed to halve the response being measured – was less than 500 nM.

Take `N#Cc1c(-c2ccc(S(=O)(=O)NC(CF)CF)cn2)n(C2CCCC2)c2c(Cl)cccc12` [compound 88, 6-(7-chloro-3-cyano-1-cyclopentyl-1H-indol-2-yl)-N-(1,3-difluoropropan-2-yl)pyridine-3-sulfonamide]: the IC50 is less than 500 nM.
